Measurements reported in patent publication US10265329B2, “Altering steroid metabolism for treatment of steroid-dependent disease” (THE CLEVELAND CLINIC FOUNDATION, priority 2015, dated 2019).
Read-outs that look alike come from different tables or passages of the source.

Columns and labels:
[1] = Phase II clinical trial NCT01393730: serum Abi metabolites before and after dutasteride; assay type: in vivo, human; conditions: for mean serum concentration, cycle 3: Abi acetate 1000 mg daily plus prednisone alone; for mean serum concentration, cycle 3 / mean serum concentration, cycle 4: 16 patients; for mean serum concentration, cycle 4: after addition of dutasteride 3.5 mg once daily
Procedure: Twelve patients with CRPC undergoing treatment with Abi acetate at Cleveland Clinic were consented under an Institutional Review Board—approved protocol (Case 7813). Blood was collected using Vacutainer Plus serum blood collection tubes (#BD367814, Becton Dickenson, Franklin Lakes, N.J.), between 1 and 16 hours after the 1000 mg daily dose of Abi acetate was administered, and allowed to clot. Tubes were centrifuged at 2500 RPM or 1430×g for 10 minutes. Serum aliquots were frozen at −80° C. until processing. To study the effect of dutasteride on Abi metabolism, serum samples were collected from patients treated on a phase II clinical trial at Dana-Farber Cancer Institute (NCT01393730). Each patient received Abi acetate (1,000 mg daily) plus prednisone (5 mg daily) for 2 cycles (8 weeks) and then additional treatment with dutasteride ([…]) was initiated. Samples were collected on treatment with Abi alone and after addition of dutasteride (start of cycles 3, 4 and 7). Seventeen patients treated at this institution on this clinical trial had blood available from all 3 time points. One patient had Abi concentrations that were under the limit of detection and was later determine to have stopped treatment because of adverse effects and was therefore not included in the analysis. Drug metabolites and internal standard (d4-abiraterone, Toronto Research Chemicals Inc, Ontario Canada) were extracted from 100 μL of patient serum with methyl tert-butyl ether (Sigma Aldrich, St. Louis, Mo.), evaporated under a stream of nitrogen gas and reconstituted in methanol:water (50:50) prior to mass spectrometry analysis. Standard curves were generated using human serum spiked with known concentrations of each metabolite to enable determination of unknown concentrations in patient samples
Samples were analyzed on a ultra high-performance liquid chromatography station (Shimadzu, Kyoto, Japan) with a DGU-20A3R degasser, 2 LC-30AD pumps, a SIL-30AC autosampler, a CTO-10A column oven and a CBM-20A system controller in tandem with a QTRAP 5500 mass spectrometer (AB Sciex, Framingham, Mass.). Drug metabolites were ionized using electrospray ionization in positive ion mode. Multiple reaction monitoring was used to follow mass transitions for Abi, IS, and the metabolites (Table 1). Due to the similarity in structure and mass transitions for the metabolites it was necessary to separate them with chromatography. Separation of drug metabolites was achieved using a mobile phase consisting of LC-MS grade (Fisher) methanol: acetonitrile: water:formic acid (39:26:34:1) at a flow rate of 0.2 ml/min., and C18 analytical column; Zorbax Eclipse plus 150×2.1 mm, 3.5 μm (Agilent, Santa Clara, Calif.).

SRD5A = target: T1, SRD5A (Homo sapiens, UniProt P18405); assay: Conversion of [3H]-AD to 5α-reduced androgens in LAPC4 cells; assay type: cell-based
T1 construct: endogenous in cells; host or cells: LAPC4
T1 sequence (P18405 1-259): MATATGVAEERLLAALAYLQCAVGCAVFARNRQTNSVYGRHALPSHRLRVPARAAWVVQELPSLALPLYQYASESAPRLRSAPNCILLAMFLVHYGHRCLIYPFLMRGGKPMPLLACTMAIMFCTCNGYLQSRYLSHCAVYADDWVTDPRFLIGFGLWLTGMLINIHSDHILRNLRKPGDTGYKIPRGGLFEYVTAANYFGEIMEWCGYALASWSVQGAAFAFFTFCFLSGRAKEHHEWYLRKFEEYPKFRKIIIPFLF
Procedure: Cell Line Metabolism: Cells were seeded and incubated in 12-well plates with 0.2 million cells/well for ˜24 h and then incubated with a mixture of radioactive ([^3H]-labeled) and non-radioactive androgens (final concentration, 100 nM; ˜1,000,000 cpm/well; PerkinElmer, Waltham, Mass.) at 37° C. Aliquots of medium were collected at the indicated times. Collected medium was treated with 1,000 units of β-glucuronidase (Helix pomatia; Sigma-Aldrich) at 65° C. for 2 h, extracted with 860 μL ethyl acetate:isooctane (1:1), and concentrated under nitrogen gas. Xenograft Metabolism: 10^7 LNCaP or VCaP cells were injected subcutaneously with Matrigel into surgically orchiectomized NSG mice that were implanted with 5 mg 90-day sustained-release DHEA pellets (Innovative Research of American, Sarasota, Fla.). Xenografts were harvested when they reached 1000 mm^3, minced, and cultured in DMEM with 10% FBS at 37° C. with mixture of radioactive ([^3H]-labeled) and non-radioactive androgens, or Abi, when they reached 1000 mm^3. Each xenograft was analyzed in triplicate in at least three independent experiments. Aliquots of medium were collected at the indicated times. Collected medium was treated with 1,000 units of β-glucuronidase at 65° C. for 2 h, extracted with 860 μL ethyl acetate:isooctane (1:1), and concentrated under nitrogen gas.
Dried samples were reconstituted in 50% methanol and injected into the HPLC. Steroids and drug metabolites were separated on Kinetex 100×2.1 mm, 2.6 μm particle size C18 reverse-phase column (Phenomenex, Torrance, Calif.) using a methanol/water gradient at 30° C. […] Alternatively, dried samples were applied to plastic-backed silica gel plates and separated by thin-layer chromatography (TLC) using a mobile phase of 3:1 chloroform:ethyl acetate, followed by exposure of the plates to a phosphorimager screen and quantitated with a Storm model 860 phosphorimager (Applied Biosystems, Foster City, Calif.). […] Results are shown as mean±SD.
Collected medium was treated with β-glucuronidase (Helix pomatia; Sigma-Aldrich), extracted with ethyl acetate:isooctane (1:1), and concentrated under nitrogen gas as described. Li et al., 523, 347-351 (2015).
Dried samples were reconstituted in 50% methanol and separated on Kinetex 100×2.1 mm, 2.6 μm particle size C18 reverse-phase column (Phenomenex, Torrance, Calif.) using a methanol/water gradient at 30° C. […] Results are shown as mean±SD.

Row | SMILES | decline in mean serum concentration after the addition of dutasteride ([1]; cycle 3 vs. cycle 4) [%] | SRD5A inhibition activity relative to D4A (SRD5A; LAPC4, [3H]-AD to 5α-dione, 24 hours) | mean serum concentration, cycle 3 [1] [nM] | mean serum concentration, cycle 4 [1] [nM] | SRD5A inhibition activity relative to D4A (SRD5A) | block of conversion from AD to 5α-androstanedione and other 5α-reduced androgens (SRD5A; 10 μM, LAPC4 cells)
1 | C[C@]12CC[C@@H](O)C[C@@H]1CC[C@@H]1[C@@H]2CC[C@]2(C)C(c3cccnc3)=CC[C@@H]12 [Compound 3α-OH-5α-Abi, 17-(3-pyridyl)-5α-androsta-16-ene-3α-ol] | 92 | lose SRD5A inhibition activity | – | – | – | –
2 | C[C@]12CCC(=O)C[C@@H]1CC[C@@H]1[C@@H]2CC[C@]2(C)C(c3cccnc3)=CC[C@@H]12 [Compound 5α-Abi, 17-(3-pyridyl)-5α-androsta-16-ene-3-one] | – | – | 25.8 | 2.9 | lose SRD5A inhibition activity | –
3 | C[C@]12CCC(=O)C=C1CC[C@@H]1[C@@H]2CC[C@]2(C)C(c3cccnc3)=CC[C@@H]12 [Compound D4A, 17-(3-Pyridyl)androsta-4,16-dien-3-one] | – | – | 9.9 | 18.2 | – | nearly completely blocks
